From ChEMBL document CHEMBL5465560, “Selectivity Literature for EUbOPEN Chemogenomic Library” (2024) come the findings set out here.

Test [1] addresses Receptor tyrosine-protein kinase erbB-3 (Homo sapiens) (UniProt P21860). The test can be described thus: Selectivity interaction (KinomeScan (DiscoverX)) EUB0000655a ERBB3. The note with it: at 10 µM.
Test [2] concerns the target T1, Serine/threonine-protein kinase Nek9 (Homo sapiens) (UniProt Q8TD19).
T1 sequence (whole entry): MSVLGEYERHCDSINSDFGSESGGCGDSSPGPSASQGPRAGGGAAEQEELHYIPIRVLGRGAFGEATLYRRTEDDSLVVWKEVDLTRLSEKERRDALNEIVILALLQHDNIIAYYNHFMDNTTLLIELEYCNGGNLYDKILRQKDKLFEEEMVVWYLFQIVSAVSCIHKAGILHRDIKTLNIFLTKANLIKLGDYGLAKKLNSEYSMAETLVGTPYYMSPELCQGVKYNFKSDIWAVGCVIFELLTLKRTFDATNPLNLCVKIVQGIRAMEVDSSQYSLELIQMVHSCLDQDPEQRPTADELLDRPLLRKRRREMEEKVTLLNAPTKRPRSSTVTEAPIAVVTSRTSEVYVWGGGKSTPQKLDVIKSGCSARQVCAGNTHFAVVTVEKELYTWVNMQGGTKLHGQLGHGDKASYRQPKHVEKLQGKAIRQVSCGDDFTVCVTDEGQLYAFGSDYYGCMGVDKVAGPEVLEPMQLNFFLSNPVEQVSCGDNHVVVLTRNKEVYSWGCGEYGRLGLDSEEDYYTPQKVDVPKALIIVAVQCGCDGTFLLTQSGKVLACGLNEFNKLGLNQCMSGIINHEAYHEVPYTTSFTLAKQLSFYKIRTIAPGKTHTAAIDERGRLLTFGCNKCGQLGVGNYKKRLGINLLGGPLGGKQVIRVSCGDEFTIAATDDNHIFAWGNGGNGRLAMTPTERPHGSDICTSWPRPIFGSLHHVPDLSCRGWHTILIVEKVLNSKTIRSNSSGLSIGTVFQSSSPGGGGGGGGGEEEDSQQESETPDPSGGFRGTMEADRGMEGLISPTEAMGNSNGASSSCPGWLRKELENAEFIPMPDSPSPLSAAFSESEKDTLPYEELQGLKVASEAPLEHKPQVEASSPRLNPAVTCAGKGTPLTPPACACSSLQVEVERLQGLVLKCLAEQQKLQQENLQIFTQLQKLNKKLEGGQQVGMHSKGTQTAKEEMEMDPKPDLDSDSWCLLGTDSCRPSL
Put plainly: Selectivity interaction (KinomeScan (DiscoverX)) EUB0000695a NEK9. The note with it: at 100 nM.

The target of test [3] is Proto-oncogene tyrosine-protein kinase ROS (Homo sapiens) (UniProt P08922). Put plainly: Selectivity interaction (Kinase screening (Nanosyn)) EUB0000604a ROS1.
Proto-oncogene tyrosine-protein kinase ROS (Homo sapiens), sequence (P08922 whole entry): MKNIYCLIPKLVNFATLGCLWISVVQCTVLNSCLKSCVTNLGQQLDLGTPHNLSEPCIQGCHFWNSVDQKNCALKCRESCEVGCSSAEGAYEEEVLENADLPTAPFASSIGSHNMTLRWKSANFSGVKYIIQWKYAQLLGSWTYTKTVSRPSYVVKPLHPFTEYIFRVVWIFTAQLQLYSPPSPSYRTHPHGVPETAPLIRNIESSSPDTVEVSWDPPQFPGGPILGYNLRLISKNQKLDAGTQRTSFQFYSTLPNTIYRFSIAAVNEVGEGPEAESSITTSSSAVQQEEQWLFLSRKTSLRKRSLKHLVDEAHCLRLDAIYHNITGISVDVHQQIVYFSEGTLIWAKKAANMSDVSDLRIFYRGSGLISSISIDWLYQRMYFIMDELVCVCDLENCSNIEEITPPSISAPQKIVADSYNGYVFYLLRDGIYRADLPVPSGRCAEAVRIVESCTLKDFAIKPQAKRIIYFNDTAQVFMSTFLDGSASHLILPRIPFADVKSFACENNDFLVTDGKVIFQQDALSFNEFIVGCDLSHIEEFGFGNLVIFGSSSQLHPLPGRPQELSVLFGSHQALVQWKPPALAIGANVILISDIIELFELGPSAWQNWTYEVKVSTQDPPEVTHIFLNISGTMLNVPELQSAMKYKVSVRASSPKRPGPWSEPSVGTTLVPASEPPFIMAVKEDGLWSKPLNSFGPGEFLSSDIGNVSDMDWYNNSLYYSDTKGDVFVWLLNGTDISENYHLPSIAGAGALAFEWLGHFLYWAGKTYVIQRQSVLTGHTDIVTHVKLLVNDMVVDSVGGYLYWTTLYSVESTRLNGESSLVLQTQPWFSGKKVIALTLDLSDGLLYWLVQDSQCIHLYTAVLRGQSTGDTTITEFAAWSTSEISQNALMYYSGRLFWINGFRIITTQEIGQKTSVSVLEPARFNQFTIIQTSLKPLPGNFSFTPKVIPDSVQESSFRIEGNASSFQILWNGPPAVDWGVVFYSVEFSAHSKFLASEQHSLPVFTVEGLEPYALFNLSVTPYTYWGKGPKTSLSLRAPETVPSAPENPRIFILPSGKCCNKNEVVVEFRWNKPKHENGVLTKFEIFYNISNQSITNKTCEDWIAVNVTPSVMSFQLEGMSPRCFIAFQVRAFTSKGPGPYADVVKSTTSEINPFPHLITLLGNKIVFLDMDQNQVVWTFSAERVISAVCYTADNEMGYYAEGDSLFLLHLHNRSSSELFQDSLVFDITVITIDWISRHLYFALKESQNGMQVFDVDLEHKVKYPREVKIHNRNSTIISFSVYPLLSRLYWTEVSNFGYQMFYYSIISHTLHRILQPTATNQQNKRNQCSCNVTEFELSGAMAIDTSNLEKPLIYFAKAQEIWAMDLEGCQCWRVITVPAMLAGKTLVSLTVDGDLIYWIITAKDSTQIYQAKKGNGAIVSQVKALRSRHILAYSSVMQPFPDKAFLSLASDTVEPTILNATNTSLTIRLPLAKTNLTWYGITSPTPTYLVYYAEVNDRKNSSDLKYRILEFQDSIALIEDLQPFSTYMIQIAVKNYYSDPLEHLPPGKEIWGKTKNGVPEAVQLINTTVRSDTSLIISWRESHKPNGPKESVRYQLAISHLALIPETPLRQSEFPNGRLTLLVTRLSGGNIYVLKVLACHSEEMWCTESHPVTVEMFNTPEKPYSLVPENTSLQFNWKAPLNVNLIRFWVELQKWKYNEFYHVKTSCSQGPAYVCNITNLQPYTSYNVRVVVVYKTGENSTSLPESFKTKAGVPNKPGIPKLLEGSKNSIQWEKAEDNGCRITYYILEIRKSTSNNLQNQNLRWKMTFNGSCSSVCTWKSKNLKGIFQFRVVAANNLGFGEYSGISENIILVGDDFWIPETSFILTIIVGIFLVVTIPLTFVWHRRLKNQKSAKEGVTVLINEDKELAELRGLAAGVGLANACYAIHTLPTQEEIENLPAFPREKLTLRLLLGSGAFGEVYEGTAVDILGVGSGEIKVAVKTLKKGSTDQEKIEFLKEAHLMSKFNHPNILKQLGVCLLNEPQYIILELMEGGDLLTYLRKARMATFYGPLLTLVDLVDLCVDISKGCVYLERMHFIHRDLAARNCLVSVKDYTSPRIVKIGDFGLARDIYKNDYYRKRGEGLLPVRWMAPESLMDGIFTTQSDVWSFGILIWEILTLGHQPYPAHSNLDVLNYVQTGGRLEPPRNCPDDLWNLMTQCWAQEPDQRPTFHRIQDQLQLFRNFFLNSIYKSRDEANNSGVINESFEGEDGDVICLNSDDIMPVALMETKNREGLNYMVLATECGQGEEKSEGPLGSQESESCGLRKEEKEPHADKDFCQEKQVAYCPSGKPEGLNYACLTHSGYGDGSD
The target in another test is CDK2/Cyclin A2 (Homo sapiens, UniProt P24941). Put plainly: (§1) Selectivity interaction (Enzymatic assay (Reaction Biology)) EUB0001632a CDK2. Format: protein-complex assay.
Test [4] concerns the target Cyclin-dependent kinase 2/cyclin E (Homo sapiens, UniProt P24941). The test is described as §1. Format: protein-complex assay.
For test [5], the target named is T2, Dual specificity mitogen-activated protein kinase kinase 6 (Homo sapiens) (UniProt P52564).
T2 sequence (whole entry): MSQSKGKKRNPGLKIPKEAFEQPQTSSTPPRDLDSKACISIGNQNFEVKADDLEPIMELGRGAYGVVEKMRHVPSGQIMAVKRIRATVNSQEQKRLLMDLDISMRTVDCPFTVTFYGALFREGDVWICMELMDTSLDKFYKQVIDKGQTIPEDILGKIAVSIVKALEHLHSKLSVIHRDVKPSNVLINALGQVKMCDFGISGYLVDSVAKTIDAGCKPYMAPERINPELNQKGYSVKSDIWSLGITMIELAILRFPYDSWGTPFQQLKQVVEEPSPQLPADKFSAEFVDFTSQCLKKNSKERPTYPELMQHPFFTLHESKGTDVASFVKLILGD
The test can be described thus: Selectivity interaction (SelectScreen profiling (Invitrogen)) EUB0000607a MAP2K6. To be noted: at 2 µM.

Test [6] has as its target Serine/threonine-protein kinase Nek6 (Homo sapiens) (UniProt Q9HC98). Put plainly: Selectivity interaction (KinomeScan (DiscoverX)) EUB0000607a NEK6. To be noted: at 10 µM.
The target of test [7] is Mitogen-activated protein kinase 1 (Homo sapiens, UniProt P28482). The test can be described thus: Selectivity interaction (Kinase panel (literature)) EUB0001199aCl MAPK1. To be noted: at 1 µM.
Mitogen-activated protein kinase 1, sequence (P28482 whole entry): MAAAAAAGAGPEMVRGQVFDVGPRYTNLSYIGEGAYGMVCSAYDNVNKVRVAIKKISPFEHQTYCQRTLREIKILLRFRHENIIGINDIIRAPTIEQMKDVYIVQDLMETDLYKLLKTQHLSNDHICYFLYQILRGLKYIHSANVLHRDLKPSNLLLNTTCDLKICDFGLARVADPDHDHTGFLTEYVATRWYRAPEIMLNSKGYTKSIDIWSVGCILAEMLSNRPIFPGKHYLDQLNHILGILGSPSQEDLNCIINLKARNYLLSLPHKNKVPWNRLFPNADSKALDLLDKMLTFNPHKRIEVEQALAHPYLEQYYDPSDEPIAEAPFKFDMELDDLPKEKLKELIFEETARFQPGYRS
The target in test [8] is T3, Cyclin-dependent kinase 11A (Homo sapiens) (UniProt Q9UQ88).
T3 sequence (whole entry): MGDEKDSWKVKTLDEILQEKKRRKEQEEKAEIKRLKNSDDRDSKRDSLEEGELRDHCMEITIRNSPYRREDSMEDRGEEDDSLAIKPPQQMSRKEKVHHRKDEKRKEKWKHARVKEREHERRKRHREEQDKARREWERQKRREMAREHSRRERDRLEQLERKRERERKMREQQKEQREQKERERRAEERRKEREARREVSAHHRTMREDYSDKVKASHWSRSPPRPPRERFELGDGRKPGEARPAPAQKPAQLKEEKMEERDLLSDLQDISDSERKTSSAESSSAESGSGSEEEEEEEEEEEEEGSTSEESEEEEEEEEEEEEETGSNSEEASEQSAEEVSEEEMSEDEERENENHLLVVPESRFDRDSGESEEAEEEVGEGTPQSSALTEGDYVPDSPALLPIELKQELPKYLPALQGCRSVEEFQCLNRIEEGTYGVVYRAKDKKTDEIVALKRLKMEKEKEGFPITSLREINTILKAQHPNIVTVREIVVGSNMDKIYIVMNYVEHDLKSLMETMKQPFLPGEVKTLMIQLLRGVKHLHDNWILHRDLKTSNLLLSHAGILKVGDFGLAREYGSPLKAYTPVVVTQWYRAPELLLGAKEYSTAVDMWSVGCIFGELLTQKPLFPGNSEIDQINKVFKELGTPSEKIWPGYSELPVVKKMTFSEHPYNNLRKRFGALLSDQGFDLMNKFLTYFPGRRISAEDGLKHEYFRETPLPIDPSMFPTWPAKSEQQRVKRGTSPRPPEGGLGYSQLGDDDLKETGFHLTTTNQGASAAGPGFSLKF
Put plainly: Selectivity interaction (Kinase panel (KiNativ target engagement assay in Jurkat cells)) EUB0001635a CDK11A. Format: cell-based. The note with it: Selectivity number of off-targets 0.0, Selectivity number of targets 233.0, Source Knowledge https://www.sciencedirect.com/science/article/pii/S2451945619300674?via%3Dihub, at 1 µM.

Test [9] deals with Dual specificity protein kinase CLK3 (Homo sapiens, UniProt P49761). The test can be described thus: Selectivity interaction (Kinase panel (KiNativ target engagement assay in Jurkat cells)) EUB0001635a CLK3. Format: cell-based. To be noted: Selectivity number of off-targets 0.0, Selectivity number of targets 233.0, Source Knowledge https://www.sciencedirect.com/science/article/pii/S2451945619300674?via%3Dihub, at 1 µM.
Dual specificity protein kinase CLK3, sequence (P49761 whole entry, looked up): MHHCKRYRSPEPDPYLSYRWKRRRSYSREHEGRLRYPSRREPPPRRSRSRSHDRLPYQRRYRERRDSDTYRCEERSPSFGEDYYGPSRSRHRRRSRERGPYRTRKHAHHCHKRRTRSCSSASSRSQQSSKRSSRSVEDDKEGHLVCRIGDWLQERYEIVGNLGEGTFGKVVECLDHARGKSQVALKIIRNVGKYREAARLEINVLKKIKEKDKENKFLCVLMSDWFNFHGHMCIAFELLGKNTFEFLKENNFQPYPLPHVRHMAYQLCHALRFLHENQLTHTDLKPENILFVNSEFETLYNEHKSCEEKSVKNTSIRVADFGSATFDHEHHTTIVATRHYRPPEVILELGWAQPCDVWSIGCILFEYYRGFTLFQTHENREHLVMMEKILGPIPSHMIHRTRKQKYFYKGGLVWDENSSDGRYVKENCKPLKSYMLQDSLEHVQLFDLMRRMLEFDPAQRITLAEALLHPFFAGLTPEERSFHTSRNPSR

Serine/threonine-protein kinase Nek6 (Homo sapiens), sequence (Q9HC98 whole entry): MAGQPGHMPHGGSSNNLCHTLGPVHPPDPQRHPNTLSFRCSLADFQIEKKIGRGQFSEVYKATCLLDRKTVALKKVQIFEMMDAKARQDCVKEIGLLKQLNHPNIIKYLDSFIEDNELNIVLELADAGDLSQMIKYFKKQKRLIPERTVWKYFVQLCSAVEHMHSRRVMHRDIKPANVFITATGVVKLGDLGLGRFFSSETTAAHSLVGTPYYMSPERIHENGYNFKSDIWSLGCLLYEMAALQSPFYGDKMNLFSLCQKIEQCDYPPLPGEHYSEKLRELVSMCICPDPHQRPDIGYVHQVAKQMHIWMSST
Receptor tyrosine-protein kinase erbB-3 (Homo sapiens), sequence (P21860 whole entry): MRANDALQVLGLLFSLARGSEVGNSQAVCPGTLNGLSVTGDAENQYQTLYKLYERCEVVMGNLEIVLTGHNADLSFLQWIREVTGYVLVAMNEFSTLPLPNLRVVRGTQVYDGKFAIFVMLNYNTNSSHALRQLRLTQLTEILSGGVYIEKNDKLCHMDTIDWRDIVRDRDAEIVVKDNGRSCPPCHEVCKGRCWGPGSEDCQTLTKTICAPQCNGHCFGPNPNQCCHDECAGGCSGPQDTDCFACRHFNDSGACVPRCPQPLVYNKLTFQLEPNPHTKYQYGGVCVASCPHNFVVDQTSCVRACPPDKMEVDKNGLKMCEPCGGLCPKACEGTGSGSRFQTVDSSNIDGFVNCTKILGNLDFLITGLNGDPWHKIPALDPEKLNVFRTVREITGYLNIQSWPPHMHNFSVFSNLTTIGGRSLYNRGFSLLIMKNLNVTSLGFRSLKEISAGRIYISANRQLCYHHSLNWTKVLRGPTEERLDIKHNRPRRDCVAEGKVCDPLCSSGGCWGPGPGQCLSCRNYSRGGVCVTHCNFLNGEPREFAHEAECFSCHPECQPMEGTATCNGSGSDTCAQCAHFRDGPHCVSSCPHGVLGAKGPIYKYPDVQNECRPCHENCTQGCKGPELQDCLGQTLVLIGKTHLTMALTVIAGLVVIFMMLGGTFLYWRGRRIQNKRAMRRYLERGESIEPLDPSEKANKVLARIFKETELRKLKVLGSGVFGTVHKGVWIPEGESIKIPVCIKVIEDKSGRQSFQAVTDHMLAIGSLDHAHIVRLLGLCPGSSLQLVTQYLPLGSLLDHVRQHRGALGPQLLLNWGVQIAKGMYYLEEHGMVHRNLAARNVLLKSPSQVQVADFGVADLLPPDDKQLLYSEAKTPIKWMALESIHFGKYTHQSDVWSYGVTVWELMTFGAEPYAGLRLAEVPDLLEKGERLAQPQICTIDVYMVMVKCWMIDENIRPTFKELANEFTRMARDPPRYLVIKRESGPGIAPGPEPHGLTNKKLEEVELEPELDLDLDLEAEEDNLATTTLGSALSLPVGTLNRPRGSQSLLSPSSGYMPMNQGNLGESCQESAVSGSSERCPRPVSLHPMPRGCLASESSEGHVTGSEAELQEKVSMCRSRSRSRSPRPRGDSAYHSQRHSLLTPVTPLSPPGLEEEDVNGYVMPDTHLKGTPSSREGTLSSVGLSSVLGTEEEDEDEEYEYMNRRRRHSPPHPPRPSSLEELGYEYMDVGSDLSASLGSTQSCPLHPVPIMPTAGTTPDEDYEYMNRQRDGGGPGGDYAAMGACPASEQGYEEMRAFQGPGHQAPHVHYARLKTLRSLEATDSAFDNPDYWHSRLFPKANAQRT

On to `CN(C)CCOc1ccc(-c2nc(-c3ccncc3)c(-c3ccc4c(c3)CC/C4=N\O)[nH]2)cc1`, for which the % of control in test [1] worked out at 0.7%.

For the compound `Cc1cc(F)c(C(=O)Nc2cccc(-c3nncn3C(C)C)n2)cc1-n1cnc(C2CC2)c1`, in [2], the % of control was determined as 100%.

`Cc1cnc(Nc2ccc(F)cc2Cl)nc1-c1c[nH]c(C(=O)N[C@H](CO)c2cccc(Cl)c2)c1`: the % of inhibition in test [3] came to 3%.

For orientation: IC50 means the point on the concentration scale where inhibition reaches its midpoint. A lower IC50 goes with inhibition by little substance. For `Cn1cc(-n2cnc3c(NCc4nc5cc(Cl)c(Cl)cc5[nH]4)nc(N4CCOCC4)nc32)cn1`, the IC50 (at CDK2/Cyclin A2; in test [4]) was over 10 µM in each case.

With `CNC(=O)Nc1ccc(-c2nc(N3CC4CCC(C3)O4)c3cnn(C4CCC5(CC4)OCCO5)c3n2)cc1`, in [5], the % of inhibition came to 8%. The compound further displayed a % of control in test [6] of 90%.

For `CN1Cc2nccc(-c3cn(C)nc3-c3ccc(F)cc3)c2C1=O`, in test [7], the % of inhibition was 2%.

`C=CC(=O)Nc1ccc(C(=O)Nc2[nH]nc3c2CN(C(=O)N[C@H](CN(C)C)c2ccccc2)C3(C)C)cc1`: the % of engagement in test [8] is -15.7%; in test [9], 4.3%.
